Results published in patent publication US8481544B2, “Antibacterial compositions” (Biota Europe Limited, priority 2006, dated 2013).
Converted amounts (≈) assume the structure as drawn.

What follows are compounds tested on Enterococcus faecalis ATCC 29212 (assay: MIC against Enterococcus faecalis ATCC 29212). Conditions: ATCC29212; Enterococcus faecalis ATCC 29212; read-out: MICs against Enterococcus faecalis, Activity.
Type: cell-based
Experimental: Institute. Methods for Dilution Antimicrobial Susceptibility Tests for Bacteria That Grow Aerobically; Approved Standard—Seventh Edition. Document M7-A7. CLSI, Wayne, Pa., 2006; Clinical Laboratories and Standards Institute. Methods for Antimicrobial Susceptibility Testing of Anaerobic Bacteria; Approved Standard—Sixth Edition. Document M11-A6. CLSI, Wayne, Pa., 2004).
Compounds of this invention were tested for antimicrobial activity by susceptibility testing in liquid or on solid media. MICs for compounds against each strain were determined by the broth microdilution or agar dilution method according to the guidelines of the Clinical Laboratories and Standards Institute, formerly the National Committee for Clinical Laboratory Standards (Clinical Laboratories and Standards Institute. Methods for Dilution Antimicrobial Susceptibility Tests for Bacteria That Grow Aerobically; Approved Standard—Seventh Edition. Document M7-A7. CLSI, Wayne, Pa., 2006; Clinical Laboratories and Standards Institute. Methods for Antimicrobial Susceptibility Testing of Anaerobic Bacteria; Approved Standard—Sixth Edition. Document M11-A6. CLSI, Wayne, Pa., 2004).

MIC [µg/mL] | SMILES
0.25 to 1 (≈ 0.701 to 2.81 µM) | CCNC(=O)Nc1nc2cc(-c3cccnc3)cc(C(=O)OC)c2s1 [Example 151, 2-(3-Ethyl-ureido)-5-pyridin-3-yl-benzothiazole-7-carboxylic acid methyl ester]
< 0.25 | CCNC(=O)Nc1nc2cc(-c3ccc(N)nc3)cc(-c3ccccn3)c2s1 [Example 138, 1-[5-(6-Amino-pyridin-3-yl)-7-pyridin-2-yl-benzothiazol-2-yl]-3-ethyl-urea]
2 to 16 (≈ 5.61 to 44.9 µM) | CCNC(=O)Nc1nc2cc(-c3cccnc3)cc(C(=O)NN)c2s1 [Example 153, 1-Ethyl-3-(7-hydrazinocarbonyl-5-pyridin-3-yl-benzothiazol-2-yl)-urea]
0.25 to 1 (≈ 0.617 to 2.47 µM) | CCNC(=O)Nc1nc2cc(-c3ccnc(OC)c3)cc(-c3ccccn3)c2s1 [Example 40, 1-Ethyl-3-[5-(2-methoxy-pyridin-4-yl)-7-pyridin-2-yl-benzothiazol-2-yl]-urea]
< 0.25 | CCNC(=O)Nc1nc2cc(-c3cncc(N)n3)cc(-c3ccccn3)c2s1 [Example 53, 1-[5-(6-Amino-pyrazin-2-yl)-7-pyridin-2-yl-benzothiazol-2-yl]-3-ethyl-urea]
< 0.25 | CCNC(=O)Nc1nc2cc(-c3cncc(OC)c3)cc(-c3ccccn3)c2s1 [Example 179, 1-Ethyl-3-[5-(5-methoxy-pyridin-3-yl)-7-pyridin-2-yl-benzothiazol-2-yl]-urea]
0.25 to 1 (≈ 0.608 to 2.43 µM) | CCNC(=O)Nc1nc2cc(-c3cccnc3)cc(-c3nc(CO)cs3)c2s1 [Example 106, 1-Ethyl-3-[7-(4-hydroxymethyl-thiazol-2-yl)-5-pyridin-3-yl-benzothiazol-2-yl]-urea]
2 to 16 (≈ 5.31 to 42.5 µM) | CCNC(=O)Nc1nc2cc(-c3cccnc3)cc(-c3cccnn3)c2s1 [Example 160, 1-Ethyl-3-(7-pyridazin-3-yl-5-pyridin-3-yl-benzothiazol-2-yl)-urea]
0.25 to 1 (≈ 0.495 to 1.98 µM) | CCNC(=O)Nc1nc2cc(-c3ccn(CCN4CCOCC4)c(=O)c3)cc(-c3ccccn3)c2s1 [Example 63, 1-Ethyl-3-{5-[1-(2-morpholin-4-yl-ethyl)-2-oxo-1,2-dihydro-pyridin-4-yl]-7-pyridin-2-yl-benzothiazol-2-yl}-urea]
0.25 to 1 (≈ 0.655 to 2.62 µM) | CCNC(=O)Nc1nc2cc(-c3cnn(C)c3)cc(-c3cnn(C)c3)c2s1 [Example 7, 1-[5,7-Bis-(1-methyl-1H-pyrazol-4-yl)-benzothiazol-2-yl]-3-ethyl-urea]
< 0.25 | CCNC(=O)Nc1nc2cc(-c3cccnc3)cc(-c3cc(C#N)ccn3)c2s1 [Example 119, 1-[7-(4-Cyano-pyridin-2-yl)-5-pyridin-3-yl-benzothiazol-2-yl]-3-ethyl-urea]
0.25 to 1 (≈ 0.578 to 2.31 µM) | CCNC(=O)Nc1nc2cc(-c3ccc(NC(C)=O)nc3)cc(-c3cccnc3)c2s1 [Example 20, N-{5-[2-(3-Ethyl-ureido)-7-pyridin-3-yl-benzothiazol-5-yl]-pyridin-2-yl}-acetamide]
0.25 to 1 (≈ 0.542 to 2.17 µM) | CCNC(=O)Nc1nc2cc(-c3ccc(NCCN(C)C)nc3)cc(-c3ccccn3)c2s1 [Example 61, 1-{5-[6-(2-Dimethylamino-ethylamino)-pyridin-3-yl]-7-pyridin-2-yl-benzothiazol-2-yl}-3-ethyl-urea]
0.25 to 1 (≈ 0.639 to 2.55 µM) | CCNC(=O)Nc1nc2cc(-c3cnc(N)nc3)cc(-c3cccnc3)c2s1 [Example 14, 1-[5-(2-Amino-pyrimidin-5-yl)-7-pyridin-3-yl-benzothiazol-2-yl]-3-ethyl-urea]
0.25 to 1 (≈ 0.47 to 1.88 µM) | CCNC(=O)Nc1nc2cc(-c3cncc(C(=O)NCCN4CCOCC4)c3)cc(-c3ccccn3)c2s1 [Example 68, 5-[2-(3-Ethyl-ureido)-7-pyridin-2-yl-benzothiazol-5-yl]-N-(2-morpholin-4-yl-ethyl)-nicotinamide]
0.25 to 1 (≈ 0.596 to 2.38 µM) | CCNC(=O)Nc1nc2cc(-c3cc(C)n(C)c(=O)c3)cc(-c3cccnc3)c2s1 [Example 50, 1-[5-(1,6-Dimethyl-2-oxo-1,2-dihydro-pyridin-4-yl)-7-pyridin-3-yl-benzothiazol-2-yl]-3-ethyl-urea]
< 0.25 | CCNC(=O)Nc1nc2cc(-c3cnc(N)nc3)cc(-c3ccccn3)c2s1 [Example 154, 1-[5-(2-Amino-pyrimidin-5-yl)-7-pyridin-2-yl-benzothiazol-2-yl]-3-ethyl-urea]
0.25 to 1 (≈ 0.543 to 2.17 µM) | CCNC(=O)Nc1nc2cc(-c3cccnc3)cc(-c3cccc(N4CCOCC4)n3)c2s1 [Example 166, 1-Ethyl-3-[7-(6-morpholin-4-yl-pyridin-2-yl)-5-pyridin-3-yl-benzothiazol-2-yl]-urea]
2 to 16 (≈ 4.94 to 39.6 µM) | CCNC(=O)Nc1nc2cc(-c3ccc(CO)cc3)cc(-c3cccnc3)c2s1 [Example 18, 1-Ethyl-3-[5-(4-hydroxymethyl-phenyl)-7-pyridin-3-yl-benzothiazol-2-yl]-urea]
2 to 16 (≈ 5.12 to 41 µM) | CCNC(=O)Nc1nc2cc(-c3cccnc3)cc(-c3ncccc3N)c2s1 [Example 94, 1-[7-(3-Amino-pyridin-2-yl)-5-pyridin-3-yl-benzothiazol-2-yl]-3-ethyl-urea]
2 to 16 (≈ 5.12 to 41 µM) | CCNC(=O)Nc1nc2cc(-c3cnccc3N)cc(-c3cccnc3)c2s1 [Example 44, 1-[5-(4-Amino-pyridin-3-yl)-7-pyridin-3-yl-benzothiazol-2-yl]-3-ethyl-urea]
0.25 to 1 (≈ 0.496 to 1.99 µM) | CCNC(=O)Nc1nc2cc(-c3ccc(NC(=O)CNC(C)(C)C)nc3)cc(-c3ccccn3)c2s1 [Example 55, 2-tert-Butylamino-N-{5-[2-(3-ethyl-ureido)-7-pyridin-2-yl-benzothiazol-5-yl]-pyridin-2-yl}-acetamide]
0.25 to 1 (≈ 0.664 to 2.66 µM) | CCNC(=O)Nc1nc2cc(-c3cnccn3)cc(-c3cccnc3)c2s1 [Example 43, 1-Ethyl-3-(5-pyrazin-2-yl-7-pyridin-3-yl-benzothiazol-2-yl)-urea]
< 0.25 | CCNC(=O)Nc1nc2cc(-c3cccnc3)cc(-c3ccc(N)cn3)c2s1 [Example 99, 1-[7-(5-Amino-pyridin-2-yl)-5-pyridin-3-yl-benzothiazol-2-yl]-3-ethyl-urea]
0.25 to 1 (≈ 0.642 to 2.57 µM) | CCNC(=O)Nc1nc2cc(-c3cnccc3C)cc(-c3ccccn3)c2s1 [Example 39, 1-Ethyl-3-[5-(4-methyl-pyridin-3-yl)-7-pyridin-2-yl-benzothiazol-2-yl]-urea]
0.25 to 1 (≈ 0.54 to 2.16 µM) | CCNC(=O)Nc1nc2cc(-c3ccn(CCN(C)C)c(=O)c3)cc(-c3ccccn3)c2s1 [Example 72, 1-{5-[1-(2-Dimethylamino-ethyl)-2-oxo-1,2-dihydro-pyridin-4-yl]-7-pyridin-2-yl-benzothiazol-2-yl}-3-ethyl-urea]
< 0.25 | CCNC(=O)Nc1nc2cc(-c3cccnc3)cc(-c3ccc(CO)cn3)c2s1 [Example 96, 1-Ethyl-3-[7-(5-hydroxymethyl-pyridin-2-yl)-5-pyridin-3-yl-benzothiazol-2-yl]-urea]
0.25 to 1 (≈ 0.639 to 2.55 µM) | CCNC(=O)Nc1nc2cc(-c3ccnc(O)c3)cc(-c3ccccn3)c2s1 [Example 56, 1-Ethyl-3-[5-(2-hydroxy-pyridin-4-yl)-7-pyridin-2-yl-benzothiazol-2-yl]-urea]
0.25 to 1 (≈ 0.574 to 2.3 µM) | CCNC(=O)Nc1nc2cc(-c3cncc(OC)c3)cc(-c3cncc(OC)c3)c2s1 [Example 143, 1-[5,7-Bis-(5-methoxy-pyridin-3-yl)-benzothiazol-2-yl]-3-ethyl-urea]
< 0.25 | CCNC(=O)Nc1nc2cc(-c3cccnc3)cc(-c3cccc(N)n3)c2s1 [Example 125, 1-[7-(6-Amino-pyridin-2-yl)-5-pyridin-3-yl-benzothiazol-2-yl]-3-ethyl-urea]
